Common to all, as to format: protein-complex assay
Assay [1] deals with T1, Integrin alpha-IIb/beta-3 (Homo sapiens, UniProt P05106+P08514). The experiment in a line: Inhibition of fibrinogen binding to purified human alpha IIb beta-3 integrin by 50% in an ELISA test. A general note: An ELISA detects its analyte on a solid surface through an enzyme-linked reagent.
For assay [2], the target named is T1, Integrin alpha-IIb/beta-3. Put plainly: Inhibition of fibrinogen binding to purified Human alphaIIb-beta3 integrin in ELISA with 4.5% bovine serum albumin (BSA).
Assay [3] has as its target T1, Integrin alpha-IIb/beta-3. The experiment in a line: Inhibition of fibrinogen binding to purified Human alphaIIb-beta3 integrin in ELISA with 0.1% bovine serum albumin (BSA).
The target in assay [4] is T1, Integrin alpha-IIb/beta-3. The experiment in a line: Inhibition of fibrinogen binding to purified Human alphaIIb-beta3 integrin in ELISA with 1% bovine serum albumin (BSA).

The structures appear in SMILES notation. Positions of bridges follow the written chain, without caps; N, C: chain ends. Non-standard residues stand in square brackets, D forms with d. Residues, ends and D or L forms follow the SMILES beside them. Pen = CC(C)(S)[C@H](N)C(=O)O; Mpa = O=C(O)CCS

T1 sequence (P05106 27-788 limits assumed): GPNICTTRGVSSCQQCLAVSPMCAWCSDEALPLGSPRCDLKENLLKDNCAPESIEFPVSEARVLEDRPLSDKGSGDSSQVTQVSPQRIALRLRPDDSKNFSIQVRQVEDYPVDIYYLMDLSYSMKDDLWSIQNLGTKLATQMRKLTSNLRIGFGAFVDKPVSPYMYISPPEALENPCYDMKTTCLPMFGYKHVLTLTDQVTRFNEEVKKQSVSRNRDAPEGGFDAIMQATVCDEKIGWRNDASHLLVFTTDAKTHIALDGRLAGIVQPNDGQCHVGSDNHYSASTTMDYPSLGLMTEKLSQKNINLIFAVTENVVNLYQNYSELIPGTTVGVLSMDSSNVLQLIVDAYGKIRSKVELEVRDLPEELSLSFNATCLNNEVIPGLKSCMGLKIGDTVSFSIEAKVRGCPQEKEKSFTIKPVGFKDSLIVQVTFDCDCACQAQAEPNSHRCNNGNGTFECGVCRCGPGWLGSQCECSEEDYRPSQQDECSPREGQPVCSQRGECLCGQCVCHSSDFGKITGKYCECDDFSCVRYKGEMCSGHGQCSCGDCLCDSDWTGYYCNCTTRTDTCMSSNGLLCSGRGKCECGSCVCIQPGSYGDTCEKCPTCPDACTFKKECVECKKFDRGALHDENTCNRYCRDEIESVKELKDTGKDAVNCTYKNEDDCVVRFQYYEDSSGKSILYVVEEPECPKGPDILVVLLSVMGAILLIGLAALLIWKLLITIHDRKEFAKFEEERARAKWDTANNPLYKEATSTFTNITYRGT
T1 sequence (P08514 32-887 limits assumed): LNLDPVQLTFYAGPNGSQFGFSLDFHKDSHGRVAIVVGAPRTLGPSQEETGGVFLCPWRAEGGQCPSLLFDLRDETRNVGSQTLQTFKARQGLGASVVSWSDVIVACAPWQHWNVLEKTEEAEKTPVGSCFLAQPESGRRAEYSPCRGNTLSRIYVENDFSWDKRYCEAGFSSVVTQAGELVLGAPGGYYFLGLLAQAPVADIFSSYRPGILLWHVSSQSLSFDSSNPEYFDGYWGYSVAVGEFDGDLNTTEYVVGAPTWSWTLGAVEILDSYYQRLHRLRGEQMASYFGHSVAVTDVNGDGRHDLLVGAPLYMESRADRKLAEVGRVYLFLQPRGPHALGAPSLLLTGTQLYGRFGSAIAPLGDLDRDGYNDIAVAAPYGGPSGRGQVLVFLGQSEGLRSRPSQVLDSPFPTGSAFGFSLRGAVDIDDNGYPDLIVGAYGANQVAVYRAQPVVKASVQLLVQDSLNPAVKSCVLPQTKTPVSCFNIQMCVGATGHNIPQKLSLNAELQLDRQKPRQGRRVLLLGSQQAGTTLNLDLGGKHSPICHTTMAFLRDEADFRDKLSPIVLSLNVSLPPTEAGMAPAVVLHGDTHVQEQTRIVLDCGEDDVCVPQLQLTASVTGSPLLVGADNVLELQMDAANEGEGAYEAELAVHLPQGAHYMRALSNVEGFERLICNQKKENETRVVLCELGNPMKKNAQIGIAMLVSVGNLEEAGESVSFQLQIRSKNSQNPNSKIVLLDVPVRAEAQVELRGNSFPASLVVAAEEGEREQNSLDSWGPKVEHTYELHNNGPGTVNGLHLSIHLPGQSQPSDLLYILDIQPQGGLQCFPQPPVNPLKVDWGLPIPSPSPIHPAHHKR
T1 sequence (P08514 891-1039 limits assumed): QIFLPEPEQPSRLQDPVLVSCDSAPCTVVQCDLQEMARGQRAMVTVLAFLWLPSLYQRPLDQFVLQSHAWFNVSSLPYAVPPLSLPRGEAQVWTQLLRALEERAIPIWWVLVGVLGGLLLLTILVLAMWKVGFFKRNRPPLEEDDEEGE

On to `N=C(N)c1ccc(COc2ccc3c(c2)CCN(C(CC(=O)O)c2ccccc2)C3=O)cc1` (stereo not drawn), for which, in assay [1], the IC50 – broadly, the concentration that inhibits the measured activity by half – came to 7 nM. Consider `CCCCCCC(CC(=O)O)N1CCc2cc(OCc3ccc(C(=N)N)cc3)ccc2C1=O` (stereo not drawn), for which the IC50 was 41 nM in assay [1], 310 nM in assay [2], 41 nM in assay [3] and 80 nM in assay [4]. As to `CCCC(CN1CCc2cc(OCc3ccc(C(=N)N)cc3)ccc2C1=O)C(=O)O` (stereo not drawn), in assay [1], the IC50 stood at 1800 nM.

Consider `CCOCCCC(CC(=O)O)N1CCc2cc(OCc3ccc(C(=N)N)cc3)ccc2C1=O` (stereo not drawn), for which the concentration for half-maximal inhibition (IC50) in assay [2] was determined as 100 nM; in assay [3], 61 nM; in assay [4] it was 73 nM. `COC(=O)c1ccc(C(CC(=O)O)N2CCc3cc(OCc4ccc(C(=N)N)cc4)ccc3C2=O)cc1` (stereo not drawn) yielded an IC50 in assay [1] of 6 nM. On the same count and under the same terms, the result for `COc1ccc(C(CC(=O)O)N2CCc3cc(OCc4ccc(C(=N)N)cc4)ccc3C2=O)cc1` (stereo not drawn) reads 8 nM. Same read-out and setting: then `CC1(C)SSCCC(=O)N[C@@H](CCCNC(=N)N)C(=O)NCC(=O)N[C@@H](CC(=O)O)C(=O)N[C@@H](Cc2c[nH]c3ccccc23)C(=O)N2CCC[C@H]2C(=O)N[C@@H]1C(N)=O` ([Mpa]RGDWP[Pen]-NH2; disulfide 1-7), with 100 nM. On the same count and under the same terms, then `COCCOCC(CC(=O)O)N1CCc2cc(OCc3ccc(C(=N)N)cc3)ccc2C1=O` (stereo not drawn), with 90 nM; and `CCC(CC(=O)O)N1CCc2cc(OCc3ccc(C(=N)N)cc3)ccc2C1=O` (stereo not drawn), with 46 nM. As for `CCCCC(CC(=O)O)N1CCc2cc(OCc3ccc(C(=N)N)cc3)ccc2C1=O` (stereo not drawn), the IC50 in assay [1] was 40 nM. Take `CCCC(CC(=O)O)N1CCc2cc(OCc3ccc(C(=N)N)cc3)ccc2C1=O` (stereo not drawn): in assay [1], the IC50 was determined as 47 nM. On the same count and under the same terms, then `N=C(N)c1ccc(COc2ccc3c(c2)CCN(CCC(=O)O)C3=O)cc1`, with 320 nM; and `COCCCC(CC(=O)O)N1CCc2cc(OCc3ccc(C(=N)N)cc3)ccc2C1=O` (stereo not drawn), with 56 nM.

In the case of `CCCCCC(CC(=O)O)N1CCc2cc(OCc3ccc(C(=N)N)cc3)ccc2C1=O` (stereo not drawn), the IC50 was 100 nM in assay [2], 24 nM in assay [3] and 40 nM in assay [4].

In the case of `N=C(N)c1ccc(C(=O)Nc2ccc3c(c2)CCN(CC(=O)O)C3=O)cc1`, in assay [1], the IC50 came to 3 nM. This lies in the single-digit nanomolar range. In assay [1], `CCCC(C(=O)O)N1CCc2cc(OCc3ccc(C(=N)N)cc3)ccc2C1=O` (stereo not drawn) came in with an IC50 of 1700 nM.
